Measurements as given in patent publication US6448269B1 (Eli Lilly and Company, priority 1993, dated 2002).
Structures can show the parent of a compound that is named as a salt. Where two headings read alike, the source gives them in different places. Values belong to the compound of their own block, whether it stands above or below them.

Key:
[1] = system: human platelet-rich plasma; test: Platelet aggregation assay (Aggregation-Human PRP/ADP); format: cell-based; details: human platelet-rich plasma incubated with compound 1 minute at 37° C., ADP-induced aggregation, read-out: Agg: Human PRP/ADP IC50uM
How it was run: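 Citrated human PRP (~200-400,000 platelets/μl) from healthy volunteers, stirred, incubated with compound 1 min at 37° C. Aggregation was then triggered, most often by ADP 5 μM, or by 1 μg/ml collagen, 1 μM U46619 or 0.3 μM platelet activating factor, and read in an aggregometer with platelet-poor plasma as reference.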

GPIIb-IIIa = molecular target: T1, GPIIb-IIIa (Homo sapiens, UniProt P05106+P08514); test: ELISA IIb-IIIa assay (fibrinogen binding to immobilized GPIIb-IIIa); details: purified platelet GPIIb-IIIa receptor coated on ELISA plates; biotin-labeled fibrinogen 10 nM, 3 hours at 25° C.
T1 construct: Purified platelet GPIIb-IIIa receptor was prepared as described by Fitzgerald; from tissue; host or cells: platelets
T1 sequence (P08514 32-887 limits assumed): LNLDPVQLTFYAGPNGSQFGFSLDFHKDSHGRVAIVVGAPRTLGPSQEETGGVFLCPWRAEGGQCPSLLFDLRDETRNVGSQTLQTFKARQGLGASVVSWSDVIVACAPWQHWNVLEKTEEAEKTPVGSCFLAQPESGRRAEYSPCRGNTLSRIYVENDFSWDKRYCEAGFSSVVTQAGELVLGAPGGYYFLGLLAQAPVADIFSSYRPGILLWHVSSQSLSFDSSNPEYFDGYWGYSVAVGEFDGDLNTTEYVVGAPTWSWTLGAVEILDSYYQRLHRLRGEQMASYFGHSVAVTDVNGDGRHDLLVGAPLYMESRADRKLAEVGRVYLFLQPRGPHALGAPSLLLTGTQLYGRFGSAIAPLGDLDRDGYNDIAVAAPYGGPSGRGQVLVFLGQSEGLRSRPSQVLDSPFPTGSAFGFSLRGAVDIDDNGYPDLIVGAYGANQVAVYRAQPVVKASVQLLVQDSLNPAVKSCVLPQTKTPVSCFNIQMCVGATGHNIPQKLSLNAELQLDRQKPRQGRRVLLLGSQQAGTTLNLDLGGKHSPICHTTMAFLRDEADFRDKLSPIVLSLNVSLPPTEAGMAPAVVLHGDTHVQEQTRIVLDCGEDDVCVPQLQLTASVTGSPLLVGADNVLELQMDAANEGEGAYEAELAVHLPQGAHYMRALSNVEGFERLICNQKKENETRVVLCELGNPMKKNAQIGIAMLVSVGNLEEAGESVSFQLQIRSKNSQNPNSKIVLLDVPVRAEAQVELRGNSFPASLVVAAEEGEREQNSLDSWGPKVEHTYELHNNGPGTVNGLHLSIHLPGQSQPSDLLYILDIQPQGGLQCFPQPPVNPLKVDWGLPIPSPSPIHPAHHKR
T1 sequence (P05106 27-788): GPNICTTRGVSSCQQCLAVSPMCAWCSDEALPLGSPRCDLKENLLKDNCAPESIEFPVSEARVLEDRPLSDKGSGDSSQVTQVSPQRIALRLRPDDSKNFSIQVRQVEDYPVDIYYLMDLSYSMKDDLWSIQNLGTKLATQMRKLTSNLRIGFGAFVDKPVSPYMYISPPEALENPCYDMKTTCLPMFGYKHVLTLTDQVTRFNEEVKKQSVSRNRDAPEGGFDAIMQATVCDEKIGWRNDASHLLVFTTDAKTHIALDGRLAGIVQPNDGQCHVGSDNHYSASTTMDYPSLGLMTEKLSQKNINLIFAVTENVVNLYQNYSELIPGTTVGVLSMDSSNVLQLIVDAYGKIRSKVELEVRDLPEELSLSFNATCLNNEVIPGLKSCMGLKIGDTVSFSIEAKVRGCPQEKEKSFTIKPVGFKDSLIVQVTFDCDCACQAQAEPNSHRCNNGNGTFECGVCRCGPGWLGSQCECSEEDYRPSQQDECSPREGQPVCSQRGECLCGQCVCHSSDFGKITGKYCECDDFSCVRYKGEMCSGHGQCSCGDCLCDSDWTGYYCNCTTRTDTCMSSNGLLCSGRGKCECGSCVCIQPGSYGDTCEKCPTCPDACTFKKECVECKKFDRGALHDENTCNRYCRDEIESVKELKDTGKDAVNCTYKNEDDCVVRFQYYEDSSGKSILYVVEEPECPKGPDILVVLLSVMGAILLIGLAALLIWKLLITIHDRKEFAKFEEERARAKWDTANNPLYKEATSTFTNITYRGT
How it was run: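 Purified platelet GPIIb-IIIa was coated overnight at 4° C in Tris/NaCl/CaCl2 pH 7.4 and BSA-blocked. Biotinylated fibrinogen (10 nM final) was incubated with test compounds for 3 h at 25° C in Ca2+-containing binding buffer. Bound ligand was detected by anti-biotin–alkaline phosphatase with pNPP, OD 405.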

Compound: O=C(O)CC1CCc2cc(NC(=O)/C=C/C3CCNCC3)ccc2O1 (racemic) [Example 78, rac-(3,4-Dihydro-6-(N-(3-(piperidine-4-yl)propenoyl)amino)-2H-1-benzopyran-2-yl)acetic Acid]
- IC50 ([1]; 1 min): 0.18 µM
- IC50 (GPIIb-IIIa): 20 nM

Compound: CCCNC(=N)c1ccc(C(=O)Nc2ccc3c(c2)CCC(CC(=O)O)O3)cc1 (racemic) [Example 82, rac-(3,4-Dihydro-6-(N-(4-((propylamino)iminomethyl)benzoyl)amino)-2H-1-benzopyran-2-yl)acetic Acid]
- IC50 ([1]; 1 min): 0.12 µM
- IC50 (GPIIb-IIIa): 19 nM

Compound: CCCCNC(=N)c1ccc(C(=O)Nc2ccc3c(c2)CCC(CC(=O)O)O3)cc1 (racemic) [Example 84, rac-(6-(N-(4-((Butylamino)iminomethyl)benzoyl)amino)-3,4-dihydro-2H-1-benzopyran-2-yl)acetic Acid]
- IC50 ([1]; 1 min): 0.084 µM
- IC50 (GPIIb-IIIa): 5.5 nM

Compound: CCOC(=O)CC1CCc2cc(NC(=O)c3ccc(C(=N)NC(=O)OC)cc3F)ccc2O1 (racemic) [Example 88, Ethyl rac-(3,4-Dihydro-6-(N-(2-fluoro-4-((methoxycarbonylamino)iminomethyl)benzoyl)amino)-2H-1-benzopyran-2-yl)acetate]
- IC50 ([1]; 1 min): 0.084 µM
- IC50 (GPIIb-IIIa): 99 nM

Compound: N=C(NCc1ccccc1)c1ccc(C(=O)Nc2ccc3c(c2)CCC(CC(=O)O)O3)cc1 (racemic) [Example 93, rac-(3,4-Dihydro-6-(N-(4-(N′-(phenylmethylamino)iminomethyl)benzoyl)amino)-2H-1-benzopyran-2-yl)acetic Acid]
- IC50 ([1]; 1 min): 0.086 µM
- IC50 (GPIIb-IIIa): 9.4 nM

Compound: N=C(N)c1ccc(COc2ccc3c(c2)CCN(CC(=O)O)C3=O)cc1 [Example 1, 6-[[4-(Aminoiminomethyl)phenyl]methoxy]-3,4-dihydro-1-oxo-2(1H)-isoquinoline Acetic Acid Trifluoroacetate]
- IC50 ([1]; 1 min): 20 µM
- IC50 (GPIIb-IIIa): 600 nM

Compound: N=C(N)c1ccc(C#Cc2ccc3c(c2)CCN(CC(=O)O)C3=O)cc1 [Example 2, 6-[[4-(Aminoiminomethyl)phenyl]ethynyl]-3,4-dihydro-1-oxo-2(1H)-isoquinoline Acetic Acid Trifluoroacetate]
- IC50 ([1]; 1 min): 0.52 µM
- IC50 (GPIIb-IIIa): 30 nM

Compound: N=C(N)c1ccc(CCc2ccc3c(c2)CCN(CC(=O)O)C3=O)cc1 [Example 3, 6-[2-[4-(Aminoiminomethyl)phenyl]ethyl]-3,4-dihydro-1-oxo-2(1H)-isoquinoline Acetic Acid Trifluoroacetate]
- IC50 ([1]; 1 min): 1 µM
- IC50 (GPIIb-IIIa): 110 nM

Compound: N=C(N)c1ccc(C(=O)Nc2ccc3c(c2)CCN(CC(=O)O)C3=O)cc1 [Example 4, 6-[[(4-(Aminoiminomethyl)benzoy]amino]-3,4-dihydro-1-oxo-2(1H)-isoquinoline Acetic Acid Trifluoroacetate]
- IC50 ([1]; 1 min): 0.1 µM
- IC50 (GPIIb-IIIa): 3.3 nM

Compound: N=C(N)c1cccc(C#Cc2ccc3c(c2)CCN(CC(=O)O)C3=O)c1 [Example 17, 6-[[3-(Aminoiminomethyl)phenyl]ethynyl]-3,4-dihydro-1-oxo-2(1H)-isoquinoline Acetic Acid Trifluoroacetate]
- IC50 ([1]; 1 min): > 100 µM
- IC50 (GPIIb-IIIa): 45000 nM

Compound: N=C(N)c1cccc(CCc2ccc3c(c2)CCN(CC(=O)O)C3=O)c1 [Example 18, 6-[2-[3-(Aminoiminomethyl)phenyl]ethyl]-3,4-dihydro-1-oxo-2(1H)-isoquinoline Acetic Acid Trifluoroacetate]
- IC50 ([1]; 1 min): > 100 µM
- IC50 (GPIIb-IIIa): 11000 nM

Compound: N=C(N)c1ccc(CNC(=O)c2ccc3c(c2)CCN(CC(=O)O)C3=O)cc1 [Example 19, 6-[[(4-Aminoiminomethyl)phenyl]methylaminocarbonyl]-3,4-dihydro-1-oxo-2(1H)isoquinoline Acetic Acid Trifluoroacetate]
- IC50 ([1]; 1 min): > 100 µM
- IC50 (GPIIb-IIIa): 13000 nM

Compound: CCOCCCC(CC(=O)O)N1CCc2cc(OCCCC3CCNCC3)ccc2C1=O (stereo not drawn) [Example 22, 6-[4-(Piperidn-4-yl)propyloxy]-3,4-dihydro-1-oxo-B-(3-ethoxypropyl)-1-oxo-2(1H)-isoquinoline Propanoic Acid Trifluoroacetate]
- IC50 ([1]; 1 min): 2 µM
- IC50 (GPIIb-IIIa): 200 nM

Compound: N=C(N)c1ccc(COc2ccc3c(c2)CCC(OCC(=O)O)C3)cc1 (stereo not drawn) [Example 23]
- IC50 ([1]; 1 min): 25 µM
- IC50 (GPIIb-IIIa): 190 nM

Compound: O=C(O)COC1CCc2cc(OCCCC3CCNCC3)ccc2C1 (stereo not drawn) [Example 24]
- IC50 ([1]; 1 min): 6.5 µM
- IC50 (GPIIb-IIIa): 760 nM

Compound: N=C(N)c1ccc(C(=O)Nc2ccc3c(c2)CCC(CC(=O)O)C3)cc1 (stereo not drawn) [Example 28]
- IC50 ([1]; 1 min): 0.19 µM
- IC50 (GPIIb-IIIa): 5 nM

Compound: N=C(N)c1ccc(C(=O)Nc2ccc3c(c2)CCC(OCC(=O)O)C3)cc1 (stereo not drawn) [Example 29]
- IC50 ([1]; 1 min): 0.28 µM
- IC50 (GPIIb-IIIa): 15 nM

Compound: N=C(N)c1ccc(C(=O)Nc2ccc3c(c2)CCC(CC(=O)O)=C3)cc1 [Example 31]
- IC50 ([1]; 1 min): 15 µM
- IC50 (GPIIb-IIIa): 16 nM

Compound: N=C(N)c1ccc(C(=O)Nc2ccc3c(c2)CCC(CC(=O)O)C3=O)c(F)c1 (stereo not drawn) [Example 32]
- IC50 ([1]; 1 min): 0.1 µM
- IC50 (GPIIb-IIIa): 4 nM

Compound: O=C(O)CN1CCc2cc(OCCCC3CCNCC3)ccc2C1 [Example 34]
- IC50 ([1]; 1 min): 2.3 µM
- IC50 (GPIIb-IIIa): 220 nM

Compound: N=C(N)c1ccc(COc2ccc3c(c2)CCN(CC(=O)O)C3)cc1 [Example 35]
- IC50 ([1]; 1 min): 0.33 µM
- IC50 (GPIIb-IIIa): 30 nM

Compound: N=C(N)c1ccc(C(=O)Nc2ccc3c(c2)CCN(CC(=O)O)C3)cc1 [Example 36]
- IC50 ([1]; 1 min): 0.17 µM
- IC50 (GPIIb-IIIa): 5 nM

Compound: N=C(N)c1ccc(C(=O)Nc2ccc3c(c2)CCC(/C=C/C(=O)O)C3)cc1 (stereo not drawn) [Example 37]
- IC50 ([1]; 1 min): 4.4 µM
- IC50 (GPIIb-IIIa): 100 nM

Compound: N=C(N)c1ccc(C(=O)Nc2ccc3c(c2)CCC(CCC(=O)O)C3)cc1 (stereo not drawn) [Example 38]
- IC50 ([1]; 1 min): 2.8 µM
- IC50 (GPIIb-IIIa): 240 nM

Compound: N=C(N)c1ccc(NC(=O)c2ccc3c(c2)CCC(OCC(=O)O)C3)cc1 (stereo not drawn) [Example 39]
- IC50 ([1]; 1 min): 0.36 µM
- IC50 (GPIIb-IIIa): 31 nM

Compound: N=C(N)c1ccc(NC(=O)c2ccc3c(c2)CCC(CC(=O)O)C3)cc1 (stereo not drawn) [Example 40]
- IC50 ([1]; 1 min): 1.6 µM
- IC50 (GPIIb-IIIa): 53 nM

Compound: N=C(N)c1ccc(C(=O)Nc2ccc3c(c2)OCC(OCC(=O)O)C3)cc1 (stereo not drawn) [Example 41]
- IC50 ([1]; 1 min): 0.3 µM
- IC50 (GPIIb-IIIa): 46 nM

- melting point: 205 to 208 °C (dec.)
Compound: N=C(N)c1ccc(C(=O)Nc2ccc3c(c2)CCC(CC(=O)O)C3=O)s1 (stereo not drawn) [Example 106]

- IC50 [1]: 0.68 µM
- IC50 (GPIIb-IIIa): 100 nM
Compound: (+−)-6-[[4-(Aminoiminomethyl)phenyl]methoxy]-3,4-dihydro-1-oxo-beta-(1,4-dioxyhexyl)-2(1H)-isoquinoline Propionoic Acid Trifluoroacetate [Example 13]
